Data on 1 compound can be found in patent US20090208981A1, “Method for Analysis of Interaction Between Small Molecules and Cells and Apparatus thereof” (priority 2005, published 2009).

In this test the test system is peripheral blood mononuclear cell (PBMC). As to the kind of experiment: Cell chromatography retention time of drug-treated PBMC on polystyrene column (150 mm×10 mm), detection at 500 nm. It counts as cell-based. The conditions noted are these: PBMC treated with 10 μg/ml for 2 minutes; PBS pH 7.4, 1 ml/min; un-treated control about 7.7 minutes; FIG. 3. The protocol:
In this example, the column used for analysis of the interaction between small molecule and cell has an inner diameter of 10 mm, a length of 150 mm and a volume of 11.8 ml (150 mm×10 mm). This column was packed with resin particles (size: 1 or 2 millimeter; material: polystyrene) and was washed first and thereafter, filled with a phosphate buffered saline (PBS).
The method is similar as described as above. Whole Blood was separated first by centrifugation using dextran cell separation medium (Ficoll) to yield peripheral blood mononuclear cell (PBMC). Then PBMC was diluted with phosphate buffered saline (PBS) into a cell suspension at concentration of 1×10^6 cells/ml.
Lectin: treated PBMC by 10 μg/ml lectin for two minutes;
Shikonin: treated PBMC by 10 μg/ml shikonin for two minutes.
The cell suspension was added with lectin or shikonin at a concentration of 10 μg/ml (lectin treated group or shikonin treated group). After reacting for 2 minutes, drug-treaded group or un-treated group (control) was loaded on the upper frontier of the column (150 mm×10 mm) respectively, and after adding PBS (pH 7.4) to a level of a pre-determined height, the column was eluted with PBS (pH 7.4) at a steady flow rate of 1 ml/min provided under the action of a pump and integrated with a spectrophotometer, which eluted cells were continuously detected with a wavelength of 500 nm. […]

On to `CC(C)=CC[C@@H](O)C1=CC(=O)c2c(O)ccc(O)c2C1=O` [shikonin], for which the “retention time of treated cell in the column” value came to 6.5 min.
